The subject of this assay is Mycoplasma hyorhinis (ATCC 17981) inoculated on HepG2 cell line. In words: Preventive activity against mycoplasma contamination during cell culturing. Conditions: 20 μg/ml AM3 and 20 μM surfactin, 1×10^3 cfu Mycoplasma hyorhinis. It counts as cell-based. On the procedure:
A cell line HepG2, which was not contaminated with mycoplasma, was inoculated at a concentration of 1×10^5 cells on DMEM (GIBCO BRL, Cat. No. 12800-058) including 10% or less serum (GIBCO BRL, Cat. No. 10082-147). The cell line was treated with 20 μg/ml of amphidinol 3 (AM3) and 20 μM of surfactin, followed by inoculation of 1×10^3 cfu (colony formin unit) of Mycoplasma hyorhinis (ATCC 17981). The cell line was cultured in an incubator at a temperature of 37° C. and in a condition of 5% CO2 for 3 days. Sub-culturing was performed twice per week. The cells were harvested every week and then PCR was performed thereon with a mycoplasma diagnosis kit (Promokine, Germany; Cellsafe Co., Ltd., Korea) according to the enclosed protocol. The resulting PCR products were electrophoresed on a 1% agarose gel to measure the mycoplasma contamination.

Molecules are shown by their SMILES.

As for `C=C/C=C/CC/C=C/C=C/C=C/CC/C=C/C(O)C(O)C1OC(C(O)C(O)C(=C)CCC(O)C2CC(O)C(O)C(C(O)C(O)/C=C(\C)CCC(O)CC(O)C(O)C(C)CC(O)C(O)CCCCCC(O)CCCC(O)/C=C/CC(O)/C=C/CC(O)CO)O2)CC(O)C1O` (stereo not shown) [AM3, amphidinol 3], the “mycoplasma contamination after artificial inoculation” value is “stably cultured without mycoplasma contamination”.

The values above are taken from patent publication US8815565B2, “Method for culturing mycoplasma contamination-free cells and method for removing mycoplasma contamination of cells” (Cellsafe Co., Ltd., priority 2010, dated 2014).
